Reference: ChEMBL document CHEMBL1201862, “PubChem BioAssay data set” (2004)
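Test compounds were applied to cells in 96-well plates for 48 hours at 5 doses. At the GI50, growth is halved.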 The source made the active and inactive calls. No stated cut-off is given here; in the data, active = GI50 up to about 1.1 µM and inactive = higher.

Columns and labels:
Assay in all cases: DTP human tumour cell line panel, 48 h
[1] = tested on: SF-539
[2] = tested on: LOX IMVI
[3] = tested on: MOLT-4
[4] = tested on: UACC-62
[5] = tested on: M14
[6] = tested on: SK-OV-3
[7] = tested on: Malme-3M
[8] = tested on: HL-60
[9] = tested on: SK-MEL-5
[10] = tested on: IGROV-1
[11] = tested on: MCF7
[12] = tested on: OVCAR-5
[13] = tested on: RXF 393
[14] = tested on: NCI/ADR-RES
[15] = tested on: 786-0
[16] = tested on: ACHN
[17] = tested on: OVCAR-4
[18] = tested on: MDA-MB-231
[19] = tested on: HCT-15
[20] = tested on: HCC 2998

## Cc1ccc2c(c1)C(O)(c1ccccc1)CCS2 (stereo not given)
[1]
  GI50: 20.2 µM (inactive)
[2]
  GI50: 19.9 µM (inactive)
[3]
  GI50: 15.3 µM (inactive)
[4]
  GI50: 22.4 µM (inactive)
[5]
  GI50: 25.4 µM (inactive)
[6]
  GI50: > 100 µM (inactive)
[7]
  GI50: 32.9 µM (inactive)
[8]
  GI50: 28.2 µM (inactive)
[9]
  GI50: 29 µM (inactive)
[10]
  GI50: 20.6 µM (inactive)
[11]
  GI50: 39.4 µM (inactive)
[12]
  GI50: 27.6 µM (inactive)
[13]
  GI50: 68.5 µM (inactive)
[14]
  GI50: 34 µM (inactive)
[15]
  GI50: 32.5 µM (inactive)
[16]
  GI50: 27.2 µM (inactive)
[17]
  GI50: 43.4 µM (inactive)
[18]
  GI50: 18 µM (inactive)
[19]
  GI50: 19.5 µM

## Brc1cc2nn(-c3ccccc3)nc2c2nonc12
[1]
  GI50: > 100 µM (inactive)
[2]
  GI50: > 100 µM (inactive)
[3]
  GI50: > 100 µM (inactive)
[4]
  GI50: > 100 µM (inactive)
[5]
  GI50: > 100 µM (inactive)
[6]
  GI50: > 100 µM (inactive)
[7]
  GI50: > 100 µM (inactive)
[8]
  GI50: > 100 µM (inactive)
[9]
  GI50: > 100 µM (inactive)
[10]
  GI50: > 100 µM (inactive)
[11]
  GI50: > 100 µM (inactive)
[20]
  GI50: > 100 µM (inactive)
[12]
  GI50: > 100 µM (inactive)
[14]
  GI50: > 100 µM (inactive)
[15]
  GI50: > 100 µM (inactive)
[16]
  GI50: > 100 µM (inactive)
[17]
  GI50: > 100 µM (inactive)
[18]
  GI50: > 100 µM (inactive)
[19]
  GI50: > 100 µM

## CC1(C)O[C@@H](CP(c2cccc3ccccc23)c2cccc3ccccc23)[C@H](CP(c2cccc3ccccc23)c2cccc3ccccc23)O1
[2]
  GI50: > 100 µM (inactive)
[3]
  GI50: > 100 µM (inactive)
[4]
  GI50: > 100 µM (inactive)
[5]
  GI50: > 100 µM (inactive)
[6]
  GI50: > 100 µM (inactive)
[9]
  GI50: > 100 µM (inactive)
[10]
  GI50: > 100 µM (inactive)
[11]
  GI50: > 100 µM (inactive)
[20]
  GI50: > 100 µM (inactive)
[12]
  GI50: > 100 µM (inactive)
[13]
  GI50: > 100 µM (inactive)
[14]
  GI50: > 100 µM (inactive)
[15]
  GI50: > 100 µM (inactive)
[16]
  GI50: > 100 µM (inactive)
[17]
  GI50: > 100 µM (inactive)
[18]
  GI50: > 100 µM (inactive)
[19]
  GI50: > 100 µM

## Oc1cc(-c2cccc(Cl)c2)nc2cc3c(cc12)OCO3
[1]
  GI50: 0.257 µM (active)
[2]
  GI50: 0.305 µM (active)
[3]
  GI50: 1.89 µM (inactive)
[4]
  GI50: 0.201 µM (active)
[5]
  GI50: 0.179 µM (active)
[6]
  GI50: 0.326 µM (active)
[7]
  GI50: 0.138 µM (active)
[8]
  GI50: 0.157 µM (active)
[9]
  GI50: 0.13 µM (active)
[10]
  GI50: 0.151 µM (active)
[11]
  GI50: 2.83 µM (inactive)
[20]
  GI50: 1.31 µM (inactive)
[12]
  GI50: 18.8 µM (inactive)
[14]
  GI50: 0.208 µM (active)
[15]
  GI50: 0.294 µM (active)
[16]
  GI50: 0.402 µM (active)
[17]
  GI50: > 75 µM (inactive)
[18]
  GI50: 2.44 µM (inactive)
[19]
  GI50: 0.269 µM

## COC(=O)CCc1cc(OC)c2oc(-c3ccc(OC)c(OC)c3)c(CO)c2c1
[1]
  GI50: > 100 µM (inactive)
[2]
  GI50: > 100 µM (inactive)
[3]
  GI50: 95.5 µM (inactive)
[4]
  GI50: > 100 µM (inactive)
[5]
  GI50: > 100 µM (inactive)
[6]
  GI50: > 100 µM (inactive)
[7]
  GI50: > 100 µM (inactive)
[8]
  GI50: > 100 µM (inactive)
[9]
  GI50: > 100 µM (inactive)
[10]
  GI50: > 100 µM (inactive)
[11]
  GI50: > 100 µM (inactive)
[20]
  GI50: 1.7 µM (inactive)
[12]
  GI50: > 100 µM (inactive)
[14]
  GI50: > 100 µM (inactive)
[15]
  GI50: > 100 µM (inactive)
[16]
  GI50: > 100 µM (inactive)
[17]
  GI50: > 100 µM (inactive)
[18]
  GI50: > 100 µM (inactive)
[19]
  GI50: > 100 µM

## CCCc1cn2c(/C=N/NC(=N)N)c(-c3ccc(Cl)c([N+](=O)[O-])c3)nc2s1
[1]
  GI50: 1.88 µM (inactive)
[2]
  GI50: 1.7 µM (inactive)
[3]
  GI50: 0.171 µM (active)
[4]
  GI50: 1.95 µM (inactive)
[5]
  GI50: 1.91 µM (inactive)
[6]
  GI50: 1.5 µM (inactive)
[7]
  GI50: 1.68 µM (inactive)
[8]
  GI50: 1.2 µM (inactive)
[9]
  GI50: 1.67 µM (inactive)
[10]
  GI50: 1.89 µM (inactive)
[11]
  GI50: 1.94 µM (inactive)
[12]
  GI50: 1.55 µM (inactive)
[13]
  GI50: 1.68 µM (inactive)
[14]
  GI50: 2.21 µM (inactive)
[15]
  GI50: 1.8 µM (inactive)
[16]
  GI50: 1.69 µM (inactive)
[17]
  GI50: 1.06 µM (active)
[18]
  GI50: 1.86 µM (inactive)
[19]
  GI50: 1.7 µM

## C=C1CC(CN2CCC(=O)NC2=O)(c2ccccc2)OC1=O (stereo not given)
[1]
  GI50: 13.7 µM (inactive)
[2]
  GI50: 3.75 µM (inactive)
[3]
  GI50: 2.25 µM (inactive)
[4]
  GI50: 8.55 µM (inactive)
[5]
  GI50: 3.08 µM (inactive)
[6]
  GI50: 16.5 µM (inactive)
[7]
  GI50: 3.53 µM (inactive)
[8]
  GI50: 1.62 µM (inactive)
[9]
  GI50: 12.4 µM (inactive)
[10]
  GI50: 7.87 µM (inactive)
[11]
  GI50: 1.64 µM (inactive)
[20]
  GI50: 15 µM (inactive)
[12]
  GI50: 15.1 µM (inactive)
[14]
  GI50: 11.6 µM (inactive)
[15]
  GI50: 4.47 µM (inactive)
[16]
  GI50: 9.16 µM (inactive)
[17]
  GI50: 1.81 µM (inactive)
[18]
  GI50: 15 µM (inactive)
[19]
  GI50: 4.98 µM

## O=C1C=CC2(O[C@H](c3ccccc3)[C@@H](c3ccccc3)O2)C(SC(=O)c2ccccc2)C1 (stereo not given in full)
[1]
  GI50: 1.75 µM (inactive)
[2]
  GI50: 1.12 µM (inactive)
[3]
  GI50: 0.35 µM (active)
[4]
  GI50: 2.34 µM (inactive)
[5]
  GI50: 1.33 µM (inactive)
[6]
  GI50: 2.32 µM (inactive)
[7]
  GI50: 2.27 µM (inactive)
[8]
  GI50: 1.84 µM (inactive)
[9]
  GI50: 1.47 µM (inactive)
[10]
  GI50: 1.52 µM (inactive)
[11]
  GI50: 0.371 µM (active)
[12]
  GI50: 1.69 µM (inactive)
[13]
  GI50: 0.182 µM (active)
[14]
  GI50: 1.57 µM (inactive)
[15]
  GI50: 0.385 µM (active)
[16]
  GI50: 1.37 µM (inactive)
[17]
  GI50: 1.63 µM (inactive)
[18]
  GI50: 3.9 µM (inactive)
[19]
  GI50: 0.673 µM
